Results on 24 compounds are retold here after US12029739B2, “SHP2 inhibitor and use thereof” (KANAPH THERAPEUTICS INC., priority 2021, dated 2024).

Like-named read-outs stand apart in the source and are kept apart here.

Experiment [1] has as its target T1, SHP2 (full length) (Homo sapiens, UniProt Q06124).
T1 construct: SHP2 (full length, diluted to 100 pM final concentration in reaction buffer, BPS bioscience, US); purchased BPS bioscience, US
T1 sequence (Q06124 1-593): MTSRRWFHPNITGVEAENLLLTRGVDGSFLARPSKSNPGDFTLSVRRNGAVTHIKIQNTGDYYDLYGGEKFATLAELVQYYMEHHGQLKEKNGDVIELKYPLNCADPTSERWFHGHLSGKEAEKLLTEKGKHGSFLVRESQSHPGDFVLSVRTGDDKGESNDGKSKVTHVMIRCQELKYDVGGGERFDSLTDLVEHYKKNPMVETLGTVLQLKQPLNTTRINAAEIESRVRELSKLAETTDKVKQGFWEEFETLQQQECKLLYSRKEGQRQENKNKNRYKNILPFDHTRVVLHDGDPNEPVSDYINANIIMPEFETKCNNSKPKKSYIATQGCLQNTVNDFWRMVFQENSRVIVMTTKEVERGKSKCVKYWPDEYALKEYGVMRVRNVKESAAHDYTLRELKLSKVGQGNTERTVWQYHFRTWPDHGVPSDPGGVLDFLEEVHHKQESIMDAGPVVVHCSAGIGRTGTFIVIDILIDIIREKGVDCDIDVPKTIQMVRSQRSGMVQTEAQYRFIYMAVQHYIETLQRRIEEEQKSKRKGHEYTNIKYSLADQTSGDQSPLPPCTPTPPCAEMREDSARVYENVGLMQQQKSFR
In words: Phosphatase assay (PTPase assay) with DiFMUP substrate. It counts as biochemical. As to conditions: SHP2 activated with SHP2 activating peptide; DiFMUP 80 μM, 2 hours; fluorescence; read-out: IC50 (PTPase aS say).

Experiment [2] deals with phospho-ERK in MIA PaCa2 or H358 cells. In words: Phospho-ERK assay (AlphaLisa). It counts as cell-based. The note with it: MIA PaCa2 or H358 cells, compound incubated 1.5 hours, read-out: IC50 (p-ERK).

For the compound `COCCn1cnc2ccc(Sc3cnc(N4CCC5(CC4)Cc4scnc4[C@H]5N)cn3)c(Cl)c2c1=O` [Example 151, 6-[5-[(4S)-4-aminospiro[4,6-dihydrocyclopenta[d]thiazole-5,4′-piperidin]-1′-yl]pyrazin-2-yl]sulfanyl-5-chloro-3-(2-methoxyethyl)quinazolin-4-one], the IC50 in experiment [1] was < 3 nM; in experiment [2] (1.5 h) it was < 45 nM.
For `C[C@@H]1OCC2(CCN(c3cnc(Sc4ccc5ncn(CC(=O)N6CCCCC6)c(=O)c5c4Cl)cn3)CC2)[C@@H]1N` [Example 95, 6-((5-((3S,4S)-4-amino-3-methyl-2-oxa-8-azaspiro[4.5]decan-8-yl)pyrazin-2-yl)thio)-5-chloro-3-(2-oxo-(2-piperidin-1-yl]ethyl)quinazolin-4(3H)-one] the same measures were < 3 nM and 45 to 1500 nM.
As to `N[C@@H]1c2ccccc2CC12CCN(c1cnc(Sc3ccc4ncn(CC5CCOC5)c(=O)c4c3Cl)cn1)CC2` (stereo partly drawn) [Example 103, 6-((5-((S)-1-amino-1,3-dihydrospiro[indene-2,4′-piperidin]-1′-yl]pyrazin-2-yl]thio)-5-chloro-3-((tetrahydrofuran-3-yl)methyl)quinazolin-4(3H)-one], the half-inhibitory concentration (IC50) in experiment [1] was < 3 nM; in experiment [2] (1.5 h), < 45 nM.
The corresponding values for `C[C@@H]1OCC2(CCN(c3cnc(Sc4ccc5ncn(CC6CCC(=O)CC6)c(=O)c5c4Cl)cn3)CC2)[C@@H]1N` [Example 121] are < 3 nM and < 45 nM.
For `COc1ccc(Cn2cnc3ccc(Sc4cnc(N5CCC6(CC5)CO[C@@H](C)[C@H]6N)cn4)c(Cl)c3c2=O)cc1` [Example 41, 6-((5-((3S,4S)-4-amino-3-methyl-2-oxa-8-azaspiro[4.5]decan-8-yl)pyrazin-2-yl)thio)-5-chloro-3-(4-methoxybenzyl)quinazolin-4(3H)-one] the same measures were < 3 nM and < 45 nM.
Take `CC1(N)CCN(c2cnc(Sc3ccc4nc[nH]c(=O)c4c3Cl)cn2)CC1` [Example 4, 6-((5-(4-amino-4-methylpiperidin-1-yl)pyrazin-2-yl)thio)-5-chloroquinazolin-4(3H)-one]: the IC50 in experiment [1] is 3 to 100 nM; in experiment [2] (1.5 h), 45 to 1500 nM.
For `N[C@@H]1c2cccnc2CC12CCN(c1cnc(Sc3ccc4ncn(Cc5ccncn5)c(=O)c4c3Cl)cn1)CC2` [Example 141, (S)-6-((5-(5-amino-5,7-dihydrospiro[yclopenta[b]pyridine-6,4′-piperidin]-1′-yl)pyrazin-2-yl)thio)-5-chloro-3-(pyrimidin-4-ylmethyl)quinazolin-4(3H)-one] the same measures were < 3 nM and < 45 nM.
The corresponding values for `COc1ccc(Cn2cnc3ccc(Sc4cnc(N5CCC6(CC5)CO[C@@H](C)[C@H]6N)cn4)c(Cl)c3c2=O)cc1F` [Example 73, 6-((5-((3S,4S)-4-amino-3-methyl-2-oxa-8-azaspiro[4.5]decan-8-yl)pyrazin-2-yl)thio)-5-chloro-3-(3-fluoro-4-methoxybenzyl)quinazolin-4(3H)-one] are < 3 nM and < 45 nM.
Take `COCCn1cnc2ccc(Sc3n[nH]c4nc(N5CCC6(CC5)CO[C@@H](C)[C@H]6N)cnc34)c(Cl)c2c1=O` [Example 178, 6-((6-((3S,4S)-4-amino-3-methyl-2-oxa-8-azaspiro[4.5]decan-8-yl)-1H-pyrazolo[3,4-b]pyrazin-3-yl)thio)-5-chloro-3-(2-methoxyethyl)quinazolin-4(3H)-one]: the IC50 was < 3 nM in experiment [1] and < 45 nM in experiment [2].
On to `C[C@@H]1OCC2(CCN(c3cnc(Sc4ccc5nn(C)cc5c4Cl)cn3)CC2)[C@@H]1N` [Example 26, (3S,4S)-8-(5-((4-chloro-2-methyl-2H-indazol-5-yl)thio)pyrazin-2-yl)-3-methyl-2-oxa-8-azaspiro[4.5]decan-4-amine], for which the IC50 in experiment [1] was < 3 nM; in experiment [2] (1.5 h), < 45 nM.
For `C[C@@H]1OCC2(CCN(c3cnc(Sc4ccc5ncn(CCN6CCCC6)c(=O)c5c4Cl)cn3)CC2)[C@@H]1N` [Example 89] the same measures were 3 to 100 nM and 45 to 1500 nM.
The corresponding values for `COCCn1cnc2ccc(Sc3cnc(N4CCC5(CC4)Cc4ncsc4[C@H]5N)c(C(N)=O)n3)c(Cl)c2c1=O` [Example 171, (S)-3-(6-amino-4,6-dihydrospiro[cyclopenta[d]thiazole-5,4′-piperidin]-1′-yl)-6-((5-chloro-3-(2-methoxyethyl)-4-oxo-3,4-dihydroquinazolin-6-yl)thio)pyrazine-2-carboxamide] are < 3 nM and < 45 nM.
For `C[C@@H]1OCC2(CCN(c3cnc(Sc4ccc5ncn(Cc6ccnc(Cl)c6)c(=O)c5c4Cl)cn3)CC2)[C@@H]1N` [Example 60, 6-((5-((3S,4S)-4-amino-3-methyl-2-oxa-8-azaspiro[4.5]decan-8-yl)pyrazin-2-yl)thio)-5-chloro-3-((2-chloropyridin-4-yl)methyl)quinazolin-4(3H)-one] the same measures were < 3 nM and < 45 nM.
Consider `C[C@@H]1OCC2(CCN(c3cnc(Sc4ccc5ncn(Cc6cncnc6)c(=O)c5c4Cl)cn3)CC2)[C@@H]1N` [Example 46, 6-((5-((3S,4S)-4-amino-3-methyl-2-oxa-8-azaspiro[4.5]decan-8-yl)pyrazin-2-yl)thio)-5-chloro-3-(pyrimidin-5-ylmethyl)quinazolin-4(3H)-one], for which the IC50 in experiment [1] is 3 to 100 nM; in experiment [2] (1.5 h), < 45 nM.
The corresponding values for `COCCOc1nc2ccc(Sc3cnc(N4CCC5(CC4)CO[C@@H](C)[C@H]5N)cn3)c(Cl)c2[nH]1` [Example 127] are < 3 nM and < 45 nM.
The corresponding values for `C[C@@H]1OCC2(CCN(c3cnc(Sc4ccc5ncn(CCCO)c(=O)c5c4Cl)cn3)CC2)[C@@H]1N` [Example 63, 6-((5-((3S,4S)-4-amino-3-methyl-2-oxa-8-azaspiro[4.5]decan-8-yl)pyrazin-2-yl)thio)-5-chloro-3-(3-hydroxypropyl)quinazolin-4(3H)-one] are < 3 nM and < 45 nM.
The corresponding values for `COCCn1cnc2ccc(Sc3cnc(N4CCC5(CC4)Cc4ccc(O)cc4[C@H]5N)cn3)c(Cl)c2c1=O` [Example 163, (S)-6-((5-(1-amino-6-hydroxy-1,3-dihydrospiro(indene-2,4′-piperidin]-1′-yl)pyrazin-2-yl)thio)-5-chloro-3-(2-methoxyethyl)quinazolin-4(31-1)-one] are < 3 nM and < 45 nM.
With `COC(C)Cn1cnc2ccc(Sc3ncc(N4CCC5(CC4)Cc4scnc4[C@H]5N)nc3N)c(Cl)c2c1=O` (stereo partly drawn) [Example 177], the concentration for half-maximal inhibition (IC50) is < 3 nM in experiment [1] and < 45 nM in experiment [2] (1.5 h).
The corresponding values for `C[C@@H]1OCC2(CCN(c3cnc(Sc4ccc5ncn(CC6CCOCC6)c(=O)c5c4Cl)cn3)CC2)[C@@H]1N` [Example 65, 6-((5-((3S,4S)-4-amino-3-methyl-2-oxa-8-azaspiro[4.5]decan-8-yl)pyrazin-2-yl)thio)-5-chloro-3-((tetrahydro-2H-pyran-4-yl)methyl)quinazolin-4(3H)-one] are < 3 nM and < 45 nM.
For the compound `Cn1cnc2ccc(Sc3cnc(N4CCC(C)(CN)CC4)cn3)c(Cl)c2c1=O` [Example 15, 6-((5-(4-(aminomethyl)-4-methylpiperidin-1-yl)pyrazin-2-yl)thio)-5-chloro-3-methylquinazolin-4(3H)-one], the IC50 lay within 3 to 100 nM in experiment [1] and 45 to 1500 nM in experiment [2] (1.5 h).
The corresponding values for `C[C@@H]1OCC2(CCN(c3cnc(Sc4ccc5ncn(Cc6ccncn6)c(=O)c5c4Cl)cn3)CC2)[C@@H]1N` [Example 45, 6-((5-((3S,4S)-4-amino-3-methyl-2-oxa-8-azaspiro[4.5]decan-8-yl)pyrazin-2-yl)thio)-5-chloro-3-(pyrimidin-4-ylmethyl)quinazolin-4(3H)-one] are < 3 nM and < 45 nM.
For `C[C@@H]1OCC2(CCN(c3cnc(Sc4ccc5ncn(CC6CCCN6C)c(=O)c5c4Cl)cn3)CC2)[C@@H]1N` (stereo partly drawn) [Example 74, 6-((5-((3S,4S)-4-amino-3-methyl-2-oxa-8-azaspiro[4.5]decan-8-yl)pyrazin-2-yl)thio)-5-chloro-3-((l-methylpyrrolidin-2-yl)methyl)quinazolin-4(3H)-one] the same measures were 3 to 100 nM and 45 to 1500 nM.
With `C[C@@H]1OCC2(CCN(c3cnc(Sc4ccc5c(=O)n(Cc6ccccc6)cnc5c4Cl)cn3)CC2)[C@@H]1N` [Example 132], the IC50 was < 3 nM in experiment [1] and < 45 nM in experiment [2] (1.5 h).
The corresponding values for `Cn1c(N2CCN(C[C@@H](N)c3ccccc3)CC2)nc(N)c(Sc2cccc(Cl)c2Cl)c1=O` [Example 191, (S)-6-amino-2-(4-(2-amino-2-phenylethyl)piperazin-1-yl)-5-((2,3-dichlorophenyl)thio)-3-methylpyrimidin-4(3H)-one] are > 100 nM and > 1500 nM.
